Reference: patent US6407306B1, “Process for extracting carotenes from carotene-containing materials” (priority 2000, dated 2002)

Columns and labels:
[1] = Solubility of extractant in dense carbon dioxide; format: physicochemical; conditions: 70° C. and 120 bar
[2] = cited from earlier work; for solubility relative to β-carotene: qualitative comparison

SMILES: O=CN1CCOCC1 [4-formylmorpholine]
- solubility in carbon dioxide [1]: 9 wt. %

SMILES: CC1=CCCC(C)(C)C1/C=C/C(C)=C/C=C/C(C)=C/C=C/C=C(C)/C=C/C=C(C)/C=C/C1=C(C)CCCC1(C)C (stereo not drawn) [α-Carotene]
- solubility relative to β-carotene [2]: more readily soluble than β-carotene

SMILES: CC1=C(/C=C/C(C)=C/C=C/C(C)=C/C=C/C=C(C)/C=C/C=C(C)/C=C/C2=C(C)CCCC2(C)C)C(C)(C)CCC1 [β-Carotene]
- solubility in benzene ([2]; benzene, 19° C.): 0.35 grams per 100 cm^3 of solvent
- solubility in carbon disulfide ([2]; carbon disulfide, 19° C.): 5.5 grams per 100 cm^3 of solvent
- solubility in ethanol ([2]; ethanol, 19° C.): 0.008 grams per 100 cm^3 of solvent
- solubility in petroleum ether ([2]; petroleum ether, 19° C.): 0.1 grams per 100 cm^3 of solvent

SMILES: CC(C)=CCC/C(C)=C/C=C/C(C)=C/C=C/C(C)=C/C=C/C=C(C)/C=C/C=C(C)/C=C/C1=C(C)CCCC1(C)C [γ-Carotene]
- solubility relative to β-carotene [2]: more readily soluble than β-carotene
